Source: patent publication US20240294531A1, “COVALENT HETEROCYCLES AND USES THEREOF” (Kumquat Biosciences Inc., priority 2022, published 2024)

Key:
Format in all cases: binding
BTK C481S protein = BTK C481S protein (Homo sapiens (Human), UniProt Q06187, C481S); test: BTK C481S HTRF displacement assay; settings: 1-hour incubation
Summary of the method: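 Tracer displacement read by HTRF after 1 hour at room temperature: GST-BTK C481S 2-659, 50 nM tracer 239 (Kd 54 nM), anti-GST antibody, compound in six four-fold doses from 5 μM. Percent inhibition versus DMSO fitted (bottom 0, top 100) for IC50, converted to KI via Cheng-Prusoff.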

BTK wildtype protein [1] = biological target: T1, BTK wildtype protein (Homo sapiens (Human), UniProt Q06187); test: Kinact/KI determination for BTK protein inhibitors (Kobs)
Experimental: Test compounds were prepared as 10 mM stock solutions in DMSO (Fisher cat #BP231-100). Human recombinant BTK wildtype protein 393-659 or BTK C481S protein 393-659 was produced in house or purchased from Saromics Biostructures AB (Lund, Sweden). BTK protein was diluted to 1 μM in buffer (20 mM Hepes, pH 7.5, 150 mM NaCl, 1 mM MgCl2, 1 mM DTT). For testing BTK modification, compounds were diluted to 50× final test concentration in DMSO in 96-well storage plates. 1 μL of the diluted 50× compounds were added to appropriate wells in the PCR plate (Fisher cat #AB-0800). Increasing concentrations of compounds were added to separate wells, resulting in final assay compound concentrations of 3 μM, 10 μM, 30 μM and 100 μM. 49 μL of the stock protein solution was added to each well of the 96-well PCR plate. Reactions were mixed carefully. The plate was sealed well with aluminum plate seal and stored in a drawer at room temperature. After different incubation times, the reactions were quenched by adding 5 μL of 2% formic acid (Fisher cat #A117-50) in MilliQ H2O to each well followed by mixing with a pipette. The plate was then resealed with aluminum seal and stored until mass spectrometry analysis.
The extent of covalent modification of BTK proteins was determined by liquid chromatography electrospray mass spectrometry analysis of the intact proteins using a Thermo Q-Exactive Plus mass spectrometer. 20 μL of sample was injected onto a bioZen 3.6 μm Intact C4 column (Phenomenex cat #00B-4767-AN) placed in a column oven set to 40° C. and separated using a LC gradient from 20% to 60% solvent B. Solvent A was 0.1% formic acid and solvent B was 0.1% formic acid in acetonitrile. HESI source settings were set to 40, 5 and 1 for the sheath, auxiliary and sweep gas flow, respectively. The spray voltage was 4 kV, and the capillary temperature was 320° C. S-lens RF level was 50 and auxiliary gas heater temperature was set to 200° C. The mass spectrometry was acquired using a scan range from 650 to 1750 m/z using positive polarity at a mass resolution of 70,000, AGC target of 1e6 ions and maximum injection time of 250 ms. The recorded protein mass spectrum was deconvoluted from the raw data file using Protein Deconvolution v4.0 (Thermo). The protein mass, adduct masses and their corresponding peak intensities were exported to Excel (Microsoft). The peak intensities for the unmodified and modified protein were used to calculate the percent covalent modification of the BTK protein based on the following equation: % BTK protein modification=((BTK−compound)/(BTK)+(BTK−Compound))*100.
The Kinact/KI is a rate constant describing the efficiency of covalent bond formation resulting from the potency (KI) of the first reversible binding event and the maximum potential rate (Kinact) of inactivation. The percent […] protein modification was plotted as a function of time using Prism version 9.4.1 (GraphPad), and the observed rate of modification (Kobs), a first-order rate constant with units of inverse time, was estimated using nonlinear regression at each compound concentration. […] If Kobs is increasing with compound concentration, KI is higher than 3 μM. Kinact/KI can be estimated by plotting Kobs values against each compound concentration used in separate reactions. The Kobs values are fitted to determine Kinact and KI using the following equation, Kobs=(Kinact×[compound conc])/(KI+[compound conc]).
Target sequence in this assay (Q06187 393-659): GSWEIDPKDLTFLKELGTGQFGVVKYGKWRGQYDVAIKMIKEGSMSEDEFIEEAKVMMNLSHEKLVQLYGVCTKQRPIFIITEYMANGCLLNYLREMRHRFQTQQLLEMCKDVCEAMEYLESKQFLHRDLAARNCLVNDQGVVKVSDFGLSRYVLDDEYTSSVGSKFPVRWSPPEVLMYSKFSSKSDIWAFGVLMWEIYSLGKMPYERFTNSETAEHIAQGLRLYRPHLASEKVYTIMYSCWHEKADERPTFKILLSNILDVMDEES

BTK wildtype protein [2] = biological target: T1, BTK wildtype protein; test: BTK wildtype HTRF displacement assay; settings: 1-hour incubation; read-out: BTK (wt) IC50
Summary of the method: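 Tracer-displacement HTRF format: compound and tracer 239 compete at the BTK active site, detected via anti-GST-Tb on GST-tagged full-length enzyme. One-hour room-temperature incubation; compounds dosed at six four-fold steps down from 5 μM. Percent inhibition versus DMSO gives IC50 by constrained four-parameter logistic fit.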
Target sequence in this assay (Q06187 2-659): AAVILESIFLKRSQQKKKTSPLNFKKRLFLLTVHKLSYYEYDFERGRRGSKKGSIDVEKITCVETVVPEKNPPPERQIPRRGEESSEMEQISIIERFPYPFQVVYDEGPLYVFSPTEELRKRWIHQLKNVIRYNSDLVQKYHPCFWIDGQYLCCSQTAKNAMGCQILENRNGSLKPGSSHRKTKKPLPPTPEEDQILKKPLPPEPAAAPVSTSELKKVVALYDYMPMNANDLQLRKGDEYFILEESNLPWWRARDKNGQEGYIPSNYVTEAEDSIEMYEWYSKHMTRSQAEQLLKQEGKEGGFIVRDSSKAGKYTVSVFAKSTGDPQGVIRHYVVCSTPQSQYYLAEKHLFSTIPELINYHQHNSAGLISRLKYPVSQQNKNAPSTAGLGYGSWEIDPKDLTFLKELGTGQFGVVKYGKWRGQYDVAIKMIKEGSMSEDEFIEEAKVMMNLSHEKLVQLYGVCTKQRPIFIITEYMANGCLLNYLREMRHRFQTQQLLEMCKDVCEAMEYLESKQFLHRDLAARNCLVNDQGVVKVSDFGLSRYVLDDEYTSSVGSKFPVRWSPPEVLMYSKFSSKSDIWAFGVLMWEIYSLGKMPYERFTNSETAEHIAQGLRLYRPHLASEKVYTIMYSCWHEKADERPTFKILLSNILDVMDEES

Chain of BTK C481S protein (Q06187 2-659 C481S): as the sequence (Q06187 2-659) above, with C480S counted along it

IC50 (BTK C481S protein) [nM] | IC50 (BTK wildtype protein [2]) [nM] | Structure (SMILES) | BTK (wt) Kobs (BTK wildtype protein [1])
≤ 1000 | ≤ 1000 | COc1ccc(F)cc1C(=O)NCc1ccc(-c2nn(C(C)C3CCCCN3C(=O)n3cncn3)c(N)c2C(N)=O)cc1 (stereo not shown) [Compound 249, 1-(1-(1-(1H-1,2,4-triazole-1-carbonyl)piperidin-2-yl)ethyl)-5-amino-3-(4-((5-fluoro-2-methoxybenzamido)methyl)phenyl)-1H-pyrazole-4-carboxamide] | 248, 249, 250, 253, 254, 256, 259, 260, 261, 264, 265, M^−1 · s^−1
≤ 1000 | > 1000 | COc1ccc(F)cc1C(=O)NCc1ccc(-c2nn(C(C)C(C)N(C)C(=O)n3cnnc3)c(N)c2C(N)=O)cc1 (stereo not shown) [Compound 155, N-(3-(5-amino-4-carbamoyl-3-(4-((5-fluoro-2-methoxybenzamido)methyl)phenyl)-1H-pyrazol-1-yl)butan-2-yl)-N-methyl-4H-1,2,4-triazole-4-carboxamide] | 132, 134, 136, 137, 138, 140, 150, 152, 153, 154, 155, M^−1 · s^−1
≤ 1000 | ≤ 1000 | COc1ccc(F)cc1C(=O)NCc1ccc(-c2nn(C3CCCC(CN(C)C(=O)n4cncn4)C3)c3ncnc(N)c23)cc1 (stereo not shown) [Compound 260, N-((3-(4-amino-3-(4-((5-fluoro-2-methoxybenzamido)methyl)phenyl)-1H-pyrazolo[3,4-d]pyrimidin-1-yl)cyclohexyl)methyl)-N-methyl-1H-1,2,4-triazole-1-carboxamide] | 248, 249, 250, 253, 254, 256, 259, 260, 261, 264, 265, M^−1 · s^−1
≤ 1000 | ≤ 1000 | COc1ccc(F)cc1C(=O)NCc1ccc(-c2nn(C[C@H]3CCCCN3C(=O)n3cncn3)c(N)c2C(N)=O)cc1 [Compound 154, (R)-1-((1-(1H-1,2,4-triazole-1-carbonyl)piperidin-2-yl)methyl)-5-amino-3-(4-((5-fluoro-2-methoxybenzamido)methyl)phenyl)-1H-pyrazole-4-carboxamide] | 132, 134, 136, 137, 138, 140, 150, 152, 153, 154, 155, M^−1 · s^−1
> 1000 | > 1000 | COc1ccc(F)cc1C(=O)NCc1ccc(-c2nn(C(CCCN(C)C(=O)n3cncn3)N(C)C)c3ncnc(N)c23)cc1 (stereo not shown) [Compound 254, N-(4-(4-amino-3-(4-((5-fluoro-2-methoxybenzamido)methyl)phenyl)-1H-pyrazolo[3,4-d]pyrimidin-1-yl)-4-(dimethyl-amino)butyl)-N-methyl-1H-1,2,4-triazole-1-carboxamide] | 248, 249, 250, 253, 254, 256, 259, 260, 261, 264, 265, M^−1 · s^−1
≤ 1000 | ≤ 1000 | COc1ccc(F)cc1C(=O)NCc1ccc(-c2nn(C3CCCCN(C(=O)n4cncn4)C3)c(N)c2C(N)=O)cc1 (stereo not shown) [Compound 256, 1-(1-(1H-1,2,4-triazole-1-carbonyl)azepan-3-yl)-5-amino-3-(4-((5-fluoro-2-methoxybenzamido)methyl)phenyl)-1H-pyrazole-4-carboxamide] | 248, 249, 250, 253, 254, 256, 259, 260, 261, 264, 265, M^−1 · s^−1
≤ 1000 | > 1000 | CN(CCC1CNc2c(C(N)=O)c(-c3ccc(Oc4ccccc4)cc3)nn2C1)C(=O)n1cncn1 (stereo not shown) [Compound 265, 6-(2-(N-methyl-1H-1,2,4-triazole-1-carboxamido)ethyl)-2-(4-phenoxy-phenyl)-4,5,6,7-tetrahydro-pyrazolo[1,5-a]pyrimidine-3-carboxamide] | 248, 249, 250, 253, 254, 256, 259, 260, 261, 264, 265, M^−1 · s^−1
≤ 1000 | ≤ 1000 | COc1ccc(F)cc1C(=O)NCc1ccc(-c2nn(C[C@@H]3C[C@@H](C)CCN3C(=O)n3cnnc3)c(N)c2C(N)=O)cc1 [Compound 264, 5-amino-3-(4-((5-fluoro-2-methoxybenzamido)methyl)phenyl)-1-(((2S,4S)-4-methyl-1-(4H-1,2,4-triazole-4-carbonyl)piperidin-2-yl)methyl)-1H-pyrazole-4-carboxamide] | 248, 249, 250, 253, 254, 256, 259, 260, 261, 264, 265, M^−1 · s^−1
– | ≤ 1000 | COc1ccc(F)cc1C(=O)NCc1ccc(-c2nn(C(C)C(C)CN(C)C(=O)n3cncn3)c3ncnc(N)c23)cc1 (stereo not shown) [Compound 248, N-(3-(4-amino-3-(4-((5-fluoro-2-methoxybenzamido)methyl)phenyl)-1H-pyrazolo[3,4-d]pyrimidin-1-yl)-2-methylbutyl)-N-methyl-1H-1,2,4-triazole-1-carboxamide] | 248, 249, 250, 253, 254, 256, 259, 260, 261, 264, 265, M^−1 · s^−1

Continued, compound first:

Structure (SMILES) | IC50 (BTK C481S protein) [nM] | IC50 (BTK wildtype protein [2]) [nM] | BTK (wt) Kobs (BTK wildtype protein [1])
NC(=O)c1c(-c2ccc(Oc3ccccc3)cc2)nn(C2CCCC3C2CCN3C(=O)n2cncn2)c1N (stereo not shown) [Compound 253, 1-(1-(1H-1,2,4-triazole-1-carbonyl)octahydro-1H-indol-4-yl)-5-amino-3-(4-phenoxyphenyl)-1H-pyrazole-4-carboxamide] | – | – | 248, 249, 250, 253, 254, 256, 259, 260, 261, 264, 265, M^−1 · s^−1
NC(=O)c1c(-c2ccc(Oc3ccccc3)cc2)nn2c1NCCC2C1CCN(C(=O)n2cncn2)CC1 (stereo not shown) [Compound 136, 7-(1-(1H-1,2,4-triazole-1-carbonyl)piperidin-4-yl)-2-(4-phenoxyphenyl)-4,5,6,7-tetrahydropyrazolo[1,5-a] pyrimidine-3-carboxamide] | ≤ 1000 | ≤ 1000 | 132, 134, 136, 137, 138, 140, 150, 152, 153, 154, 155, M^−1 · s^−1
COc1ccc(F)cc1C(=O)NCc1ccc(-c2nn(C3CCCC4(CCN4C(=O)n4cncn4)C3)c3ncnc(N)c23)cc1 (stereo not shown) [Compound 152, N-(4-(1-(1-(1H-1,2,4-triazole-1-carbonyl)-1-azaspiro[3.5]nonan-6-yl)-4-amino-1H-pyrazolo[3,4-d]pyrimidin-3-yl)benzyl)-5-fluoro-2-methoxybenzamide] | ≤ 1000 | – | 132, 134, 136, 137, 138, 140, 150, 152, 153, 154, 155, M^−1 · s^−1
CN(C(=O)n1cncn1)C1CCCC(C2CCNc3c(C(N)=O)c(-c4ccc(Oc5ccccc5)cc4)nn32)C1 (stereo not shown) [Compound 134, 7-(3-(N-methyl-1H-1,2,4-triazole-1-carboxamido)cyclohexyl)-2-(4-phenoxyphenyl)-4,5,6,7-tetrahydropyrazolo[1,5-a]pyrimidine-3-carboxamide] | ≤ 1000 | ≤ 1000 | 132, 134, 136, 137, 138, 140, 150, 152, 153, 154, 155, M^−1 · s^−1
COc1ccc(F)cc1C(=O)NCc1ccc(-c2nn(C[C@@H]3CCC[C@H]3CN(C)C(=O)n3cncn3)c3ncnc(N)c23)cc1 [Compound 153, N-(((1R,2R)-2-((4-amino-3-(4-((5-fluoro-2-methoxybenzamido)methyl)phenyl)-1H-pyrazolo[3,4-d]pyrimidin-1-yl)methyl)cyclopentyl)methyl)-N-methyl-1H-1,2,4-triazole-1-carboxamide] | ≤ 1000 | ≤ 1000 | 132, 134, 136, 137, 138, 140, 150, 152, 153, 154, 155, M^−1 · s^−1
COc1ccc(F)cc1C(=O)NCc1ccc(-c2nn(C3CCC(N(C)C(=O)n4cncn4)C3)c(N)c2C(N)=O)cc1 (stereo not shown) [Compound 150, N-(3-(5-amino-4-carbamoyl-3-(4-((5-fluoro-2-methoxybenzamido)methyl)phenyl)-1H-pyrazol-1-yl)cyclopentyl)-N-methyl-1H-1,2,4-triazole-1-carboxamide] | ≤ 1000 | – | 132, 134, 136, 137, 138, 140, 150, 152, 153, 154, 155, M^−1 · s^−1
